Laboratory results from patent US8329674B2, “Film forming dental compositions and related methods” (3M Innovative Properties Company, priority 2007, dated 2012).
≈ marks a conversion by molar mass, not a printed value.

Legend:
Assay in all cases: Minimum Inhibitory Concentration (MIC) Test
Format in all cases: cell-based
[1] = test system: Staphylococcus aureus (strain ATCC 6538); conditions: S. aureus; compound emulsified in water with PLURONIC F68; 24 hours at 37° C.; none = no inhibitory activity noted
Protocol: (§1) The MIC Test was carried out using successively lower concentrations of compounds. Sterile tryptic soy broth (50 microliters; TSB, available from BD Dfico, Becton, Dickinson and Company, Franklin Lakes, N.J.) was deposited into each well of a sterile polystyrene 96-well microtitcr plate. Into each well in the first (leftmost) column of the plate, there was then deposited a 50 microliter aliquot (of known concentration) of a compound (i.e., a compound of Formula I, or a pharmaceutically acceptable salt thereof, or comparative compound). A 50 microliter aliquot of the mixture in the first (leftmost) well in the first row of the plate was transferred to the second well in the first row. A 50 microliter aliquot of the mixture in the second well in the first row was then transferred to the third well in the first row. The compound was successively diluted (1:1 dilution at each step) by transferring a 50 microliter aliquot from one well into the next well, across the row of the plate. This procedure was repeated for each row of the plate. Then, an overnight culture of Streptococcus mutans (strain ATCC 25175) was diluted 1:100 into sterile tryptic soy broth. A 50 microliter aliquot of the diluted S. mutans culture (10^5 CFU) was deposited into each well of the microtiter plate. The plate was then incubated at 37° C. for 24 hours in a sealed humidified chamber. The plate was then visually inspected to determine the lowest concentration of compound at which no bacterial growth was visible. This value was considered to be the minimum inhibitory concentration (MIC) for the compound. The test was repeated using Staphylococcus aureus (strain ATCC 6538) and Pseudomonas aeruginosa (strain ATCC 9027) in place of S. mutans.
(§2) A sample of each of N-dodecanoyl-D-glucosamine, N-tetradecanoyl-D-glucosamine, and N-hexadecanoyl-D-glucosamine (0.100 g each) was emulsified in water (10 g) using a nonionic surfactant (0.9 g; PLURONIC F68, available from BASF Corp., Mount Olive, N.J.). A control sample was made by combining the nonionic surfactant (0.9 g) and water (10 g). Each of the four samples was evaluated using the Minimum Inhibitory Concentration (MIC) Test described above with S. mutans, S. aureus, and P. aeruginosa. In Table 5, “F68” refers to the nonionic surfactant used in the Comparative Examples, and “none” means that no inhibitory activity was noted.

[2] = test system: Pseudomonas aeruginosa (strain ATCC 9027); conditions: P. aeruginosa; compound emulsified in water with PLURONIC F68; 24 hours at 37° C.; none = no inhibitory activity noted
Protocol: as §1, §2

[3] = test system: Streptococcus mutans (strain ATCC 25175); conditions: ATCC25175, S. mutans, compound emulsified in water with PLURONIC F68, 24 hours at 37° C., none = no inhibitory activity noted
Protocol: as §1, §2

Compound	MIC [1]	MIC [2]	MIC [3]
CCCCCCCCCCCC(=O)N[C@H]1C(O)O[C@H](CO)[C@@H](O)[C@@H]1O (stereo partly drawn) [N-dodecanoyl-D-glucosamine]	None	None	78 µg/mL (≈ 216 µM)
CCCCCCCCCCCCCCCC(=O)N[C@H]1C(O)O[C@H](CO)[C@@H](O)[C@@H]1O (stereo partly drawn) [N-hexadecanoyl-D-glucosamine]	None	None	39 µg/mL (≈ 93.4 µM)
CCCCCCCCCCCCCC(=O)N[C@H]1C(O)O[C@H](CO)[C@@H](O)[C@@H]1O (stereo partly drawn) [N-tetradecanoyl-D-glucosamine]	None	None	78 µg/mL (≈ 200 µM)
